According to ChEMBL document CHEMBL5303573, “Mapping human microbiome drug metabolism by gut bacteria and their genes” (Nature, 2019):

How the values were obtained:
[1] = The drug is tested on Ruminococcus lactaris strain: ATCC29176 for biotransformation. The drug concentrations were measured before and after a 12-h incubation by liquid-chromatography-coupled mass spectrometry (LC–MS); details: 2 µM
[2] = The drug is tested on Bacteroides caccae strain: ATCC43185 for biotransformation. The drug concentrations were measured before and after a 12-h incubation by liquid-chromatography-coupled mass spectrometry (LC–MS); details: 2 µM
[3] = The drug is tested on Eubacterium ventriosum strain: ATCC27560 for biotransformation. The drug concentrations were measured before and after a 12-h incubation by liquid-chromatography-coupled mass spectrometry (LC–MS); assay type: ADME; design: dose 2 uM, timepoint 0 vs 12 hours; details: 2 µM
[4] = akkermansia muciniphila, 12 h, 2 µM
Description: The drug is tested on Akkermansia muciniphila strain: ATCC BAA-835 for biotransformation. The drug concentrations were measured before and after a 12-h incubation by liquid-chromatography-coupled mass spectrometry (LC–MS)

[5] = The drug is tested on Blautia luti strain: DSM14534 for biotransformation. The drug concentrations were measured before and after a 12-h incubation by liquid-chromatography-coupled mass spectrometry (LC–MS); assay type: ADME; design: dose 2 uM, timepoint 0 vs 12 hours; details: 2 µM
[6] = The drug is tested on Bifidobacterium longum subsp. Infantis strain: CCUG52486 for biotransformation. The drug concentrations were measured before and after a 12-h incubation by liquid-chromatography-coupled mass spectrometry (LC–MS); details: 2 µM
[7] = The drug is tested on Parabacteroides merdae strain: ATCC43184 for biotransformation. The drug concentrations were measured before and after a 12-h incubation by liquid-chromatography-coupled mass spectrometry (LC–MS); details: 2 µM
[8] = limosilactobacillus reuteri cf48-3a, 12 h, 2 µM
Description: The drug is tested on Lactobacillus reuteri CF48-3A strain: BEI HM-102 for biotransformation. The drug concentrations were measured before and after a 12-h incubation by liquid-chromatography-coupled mass spectrometry (LC–MS)

[9] = The drug is tested on Anaerococcus hydrogenalis strain: DSM7454 for biotransformation. The drug concentrations were measured before and after a 12-h incubation by liquid-chromatography-coupled mass spectrometry (LC–MS); details: 2 µM
[10] = The drug is tested on Providencia stuartii strain: ATCC25827 for biotransformation. The drug concentrations were measured before and after a 12-h incubation by liquid-chromatography-coupled mass spectrometry (LC–MS); details: 2 µM
[11] = segatella copri, 12 h, 2 µM
Description: The drug is tested on Prevotella copri strain: DSM18205 for biotransformation. The drug concentrations were measured before and after a 12-h incubation by liquid-chromatography-coupled mass spectrometry (LC–MS)

[12] = parabacteroides johnsonii, 12 h, 2 µM
Description: The drug is tested on Parabacteroides johnsonii strain: DSM18315 for biotransformation. The drug concentrations were measured before and after a 12-h incubation by liquid-chromatography-coupled mass spectrometry (LC–MS)

[13] = bacteroides intestinalis, 12 h, 2 µM
Description: The drug is tested on Bacteroides intestinalis strain: DSM17393 for biotransformation. The drug concentrations were measured before and after a 12-h incubation by liquid-chromatography-coupled mass spectrometry (LC–MS)

[14] = The drug is tested on Bacteroides fragilis strain: HMW615 for biotransformation. The drug concentrations were measured before and after a 12-h incubation by liquid-chromatography-coupled mass spectrometry (LC–MS); details: 2 µM
[15] = The drug is tested on Bacteroides sp. WH2 strain: WH2 for biotransformation. The drug concentrations were measured before and after a 12-h incubation by liquid-chromatography-coupled mass spectrometry (LC–MS); details: bacteroides sp. wh2, 12 h, 2 µM
[16] = bacteroides thetaiotaomicron, 12 h, 2 µM
Description: The drug is tested on Bacteroides thetaiotaomicron strain: 3731 for biotransformation. The drug concentrations were measured before and after a 12-h incubation by liquid-chromatography-coupled mass spectrometry (LC–MS)

[17] = The drug is tested on Bacteroides finegoldii strain: DSM17565 for biotransformation. The drug concentrations were measured before and after a 12-h incubation by liquid-chromatography-coupled mass spectrometry (LC–MS); details: 2 µM
[18] = anaerostipes sp., 12 h, 2 µM
Description: The drug is tested on Anaerostipes sp. strain: fecal isolate for biotransformation. The drug concentrations were measured before and after a 12-h incubation by liquid-chromatography-coupled mass spectrometry (LC–MS)

[19] = The drug is tested on Odoribacter splanchnicus strain: fecal isolate for biotransformation. The drug concentrations were measured before and after a 12-h incubation by liquid-chromatography-coupled mass spectrometry (LC–MS); details: 2 µM
[20] = parabacteroides distasonis, 12 h, 2 µM
Description: The drug is tested on Parabacteroides distasonis strain: ATCC8503 for biotransformation. The drug concentrations were measured before and after a 12-h incubation by liquid-chromatography-coupled mass spectrometry (LC–MS)

Row | SMILES | Bacterial Biotransformation [1] | Bacterial Biotransformation [2] | Bacterial Biotransformation [3] | Bacterial Biotransformation [4] | Bacterial Biotransformation [5] | Bacterial Biotransformation [6] | Bacterial Biotransformation [7] | Bacterial Biotransformation [8] | Bacterial Biotransformation [9] | Bacterial Biotransformation [10] | Bacterial Biotransformation [11] | Bacterial Biotransformation [12] | Bacterial Biotransformation [13] | Bacterial Biotransformation [14] | Bacterial Biotransformation [15] | Bacterial Biotransformation [16] | Bacterial Biotransformation [17] | Bacterial Biotransformation [18] | Bacterial Biotransformation [19] | Bacterial Biotransformation [20]
1 | Br.CN(C)CCCC1(c2ccc(F)cc2)OCc2cc(C#N)ccc21 (stereo unspecified) [CITALOPRAM HYDROBROMIDE] | Compound NOT metabolized | Compound NOT metabolized | Compound NOT metabolized | Compound NOT metabolized | Compound NOT metabolized | Compound NOT metabolized | Compound NOT metabolized | Compound NOT metabolized | Compound NOT metabolized | Compound NOT metabolized | Compound NOT metabolized | Compound NOT metabolized | Compound NOT metabolized | Compound NOT metabolized | Compound NOT metabolized | Compound NOT metabolized | Compound NOT metabolized | Compound NOT metabolized |  | 
2 | CCC1(c2ccc(N)cc2)CCC(=O)NC1=O (stereo unspecified) [AMINOGLUTETHIMIDE] | Compound NOT metabolized | Compound NOT metabolized | Compound NOT metabolized | Compound NOT metabolized | Compound NOT metabolized | Compound NOT metabolized | Compound NOT metabolized | Compound NOT metabolized | Compound NOT metabolized | Compound NOT metabolized | Compound NOT metabolized | Compound NOT metabolized | Compound NOT metabolized | Compound NOT metabolized | Compound NOT metabolized | Compound NOT metabolized | Compound NOT metabolized | Compound NOT metabolized | Compound NOT metabolized | 
3 | O=C(O)COCCN1CCN(C(c2ccccc2)c2ccc(Cl)cc2)CC1 (stereo unspecified) [CETIRIZINE] | Compound NOT metabolized | Compound NOT metabolized | Compound NOT metabolized | Compound NOT metabolized | Compound NOT metabolized | Compound NOT metabolized | Compound NOT metabolized | Compound NOT metabolized | Compound NOT metabolized |  | Compound metabolized | Compound NOT metabolized | Compound metabolized | Compound metabolized | Compound NOT metabolized | Compound metabolized | Compound metabolized | Compound NOT metabolized |  | Compound metabolized
4 | CNC(=C[N+](=O)[O-])NCCSCc1csc(CN(C)C)n1 [NIZATIDINE] | Compound metabolized | Compound NOT metabolized | Compound metabolized | Compound NOT metabolized | Compound metabolized | Compound metabolized | Compound NOT metabolized | Compound NOT metabolized | Compound metabolized | Compound metabolized | Compound metabolized | Compound metabolized | Compound metabolized | Compound metabolized |  | Compound NOT metabolized | Compound metabolized | Compound metabolized |  | Compound metabolized
5 | CN1CCN(C2=Nc3cc(Cl)ccc3Nc3ccccc32)CC1 [CLOZAPINE] | Compound NOT metabolized | Compound NOT metabolized | Compound NOT metabolized | Compound NOT metabolized | Compound NOT metabolized | Compound NOT metabolized | Compound NOT metabolized | Compound NOT metabolized | Compound NOT metabolized | Compound NOT metabolized | Compound NOT metabolized | Compound NOT metabolized | Compound NOT metabolized | Compound NOT metabolized | Compound NOT metabolized | Compound NOT metabolized | Compound NOT metabolized | Compound NOT metabolized | Compound NOT metabolized | 
6 | Clc1ccc(Cn2c(CN3CCCC3)nc3ccccc32)cc1 [CLEMIZOLE] | Compound NOT metabolized | Compound NOT metabolized | Compound NOT metabolized |  | Compound NOT metabolized | Compound NOT metabolized | Compound NOT metabolized | Compound NOT metabolized | Compound NOT metabolized | Compound NOT metabolized | Compound NOT metabolized | Compound NOT metabolized | Compound NOT metabolized | Compound NOT metabolized | Compound NOT metabolized | Compound NOT metabolized | Compound NOT metabolized | Compound NOT metabolized | Compound NOT metabolized | Compound NOT metabolized
7 | CCN(CC)CCNC(=O)c1ccc(NC(C)=O)cc1 [ACECAINIDE] | Compound NOT metabolized | Compound NOT metabolized | Compound NOT metabolized | Compound NOT metabolized | Compound NOT metabolized | Compound NOT metabolized |  |  | Compound NOT metabolized |  | Compound NOT metabolized | Compound NOT metabolized | Compound NOT metabolized | Compound NOT metabolized | Compound NOT metabolized |  | Compound NOT metabolized | Compound NOT metabolized |  | Compound NOT metabolized
